Measured values published in publication PMC10611578, “Aβ1-6A2V(D) peptide, effective on Aβ aggregation, inhibits tau misfolding and protects the brain after traumatic brain injury” (Molecular Psychiatry, 2023).
Square brackets hold non-standard residues; d marks the D form. Peptide text beside a SMILES is read from it.

Columns and labels:
C. elegans = conditions: C. elegans; ref [18]; cited from earlier work
[1] = tested on: misfolded toxic tau in P301L mouse brain homogenate; C. elegans; type: in vivo, Caenorhabditis elegans (Bristol N2)
Experimental: Bristol N2 nematodes were obtained from the Caenorhabditis elegans Genetic Center (CGC, University of Minnesota, Minneapolis, MN, USA) and propagated at 20 °C on solid Nematode Growth Medium (NGM) seeded with E. coli OP50 (CGC) for food. We used the bleaching technique to prepare age-synchronized animals. C. elegans at the first larval stage were then transferred to fresh NGM plates and grown at 20 °C. At the L3-L4 larval stage, nematodes were collected with M9 buffer, centrifuged, and washed twice with 10 mM PBS (pH 7.4) to eliminate bacteria. Worms were incubated for 2 h at room temperature with orbital shaking, in the absence of E. coli, with brain homogenates from Non-tg and P301L mice (30 µg protein/100 worms/100 µL 10 mM PBS, pH 7.4) in the presence or absence of 50 µM Aβ1-6A2V(D), 50 µM TAT, or 0.1–200 µM Aβ1-6A2V-TAT(D). Control worms were treated with 10 mM PBS, pH 7.4 (Vehicle), 50 µM Aβ1-6A2V (D), 50 µM Aβ1-6A2V-TAT(D) or 50 µM TAT (100 worms/100 µL). Pericontusional tissue homogenates from young WT TBI mice 12 months post-injury or aged-matched sham mice were administered to worms (30 µg protein/100 worms/100 µL) in the absence or presence of 50 µM Aβ1-6A2V-TAT(D). Pericontusional tissue homogenates from 3xTg-AD TBI mice, as well as pericontusional tissues from aged WT TBI, previously treated or not with intranasal 50 mg/kg b.w. […] Homogenates from naive or sham mice were administered to worms as controls for 3xTg-AD and aged WT TBI mice, respectively ((30 µg protein/100 worms/100 µL 10 mM PBS, pH 7.4). As an additional negative control, 10 mM PBS, pH 7.4 (100 worms/100 µL) was administered to nematodes. Worms were then plated onto NGM plates seeded with OP50 E. coli, grown at 20 °C, and transferred every day to new NGM plates seeded with E. coli to avoid overlapping generations. The locomotor activity of nematodes was scored 7 days after the treatment in blind conditions and expressed as the body bends/min [26]. […]

[2] = tested on: insoluble tau (P301L mouse brain homogenate); assay: Detergent insolubility assay of tau in P301L brain lysate; type: biochemical, human tau with P301L mutation, JNPL3 mice; conditions: 50 µM, 2 h at 25 °C, PBS pH 7.4; mean ± SD, N = 4-5
[3] = tested on: abnormal tau in WT TBI mouse brain homogenate; C. elegans; assay: Locomotor activity of C. elegans exposed to brain homogenate of WT TBI mice 12 months post-injury; type: in vivo, Caenorhabditis elegans (Bristol N2); conditions: 50 µM peptide, pericontusional tissue 12 months post-injury, 30 µg protein/100 worms/100 µL, 7 days after treatment; N = 30
Experimental: Bristol N2 nematodes were obtained from the Caenorhabditis elegans Genetic Center (CGC, University of Minnesota, Minneapolis, MN, USA) and propagated at 20 °C on solid Nematode Growth Medium (NGM) seeded with E. coli OP50 (CGC) for food. We used the bleaching technique to prepare age-synchronized animals. C. elegans at the first larval stage were then transferred to fresh NGM plates and grown at 20 °C. At the L3-L4 larval stage, nematodes were collected with M9 buffer, centrifuged, and washed twice with 10 mM PBS (pH 7.4) to eliminate bacteria. […] Homogenates from naive or sham mice were administered to worms as controls for 3xTg-AD and aged WT TBI mice, respectively ((30 µg protein/100 worms/100 µL 10 mM PBS, pH 7.4). As an additional negative control, 10 mM PBS, pH 7.4 (100 worms/100 µL) was administered to nematodes. Worms were then plated onto NGM plates seeded with OP50 E. coli, grown at 20 °C, and transferred every day to new NGM plates seeded with E. coli to avoid overlapping generations. The locomotor activity of nematodes was scored 7 days after the treatment in blind conditions and expressed as the body bends/min [26]. […]

For `CC(C)[C@@H](NC(=O)[C@H](N)CC(=O)O)C(=O)N[C@H](CCC(=O)O)C(=O)N[C@H](Cc1ccccc1)C(=O)N[C@H](CCCNC(=N)N)C(=O)N[C@H](Cc1c[nH]cn1)C(=O)NCC(=O)NCC(=O)NCC(=O)NCC(=O)NCC(=O)N[C@H](CCCNC(=N)N)C(=O)N[C@H](CCCCN)C(=O)N[C@H](CCCCN)C(=O)N[C@H](CCCNC(=N)N)C(=O)N[C@H](CCCNC(=N)N)C(=O)N[C@H](CCC(N)=O)C(=O)N[C@H](CCCNC(=N)N)C(=O)N[C@H](CCCNC(=N)N)C(=O)N[C@H](CCCNC(=N)N)C(=O)O` [Aβ1-6A2V-TAT(D)] (H-[dD][dV][dE][dF][dR][dH]GGGGG[dR][dK][dK][dR][dR][dQ][dR][dR][dR]-OH; N-terminus assumed), the “Passage through the worm's membrane” value (C. elegans) is listed as “only in the presence of the TAT sequence, Aβ1-6A2V(D) can pass through the worm’s membrane”, the “Dose dependence of the protection of worms from P301L brain homogenate” value ([1]; 0-200 µM peptide, body bends 7 days after treatment) is listed as “The effect was dose-dependent” and the “Protection of worms from toxicity of P301L brain homogenate” value ([1]; 30 µg protein/100 worms/100 µL, body bends 7 days after treatment, 50 µM peptide) is listed as “protected worms from the toxicity caused by P301L brain homogenates”. The IC50 ([1]; 0.1–200 µM peptide, 30 µg protein/100 worms/100 µL, 2 h exposure at room temperature, PBS pH 7.4, body bends 7 days after treatment, three independent experiments (N = 30), read-out: IC50 for protection of worms from P301L brain homogenate toxicity) was 25.6 µM, the “Fraction of insoluble tau in P301L brain homogenate” value [2] was “without affecting the fraction of insoluble tau” and the “Reversal of toxic effect of WT TBI brain homogenate in C. elegans” value [3] was “completely reverted”.
